Assay [1] deals with T1, ERα (Homo sapiens, UniProt P03372).
T1 construct: ERα degradation percent activity in MCF7 neo/HER2 cells
T1 sequence (P03372 1-595): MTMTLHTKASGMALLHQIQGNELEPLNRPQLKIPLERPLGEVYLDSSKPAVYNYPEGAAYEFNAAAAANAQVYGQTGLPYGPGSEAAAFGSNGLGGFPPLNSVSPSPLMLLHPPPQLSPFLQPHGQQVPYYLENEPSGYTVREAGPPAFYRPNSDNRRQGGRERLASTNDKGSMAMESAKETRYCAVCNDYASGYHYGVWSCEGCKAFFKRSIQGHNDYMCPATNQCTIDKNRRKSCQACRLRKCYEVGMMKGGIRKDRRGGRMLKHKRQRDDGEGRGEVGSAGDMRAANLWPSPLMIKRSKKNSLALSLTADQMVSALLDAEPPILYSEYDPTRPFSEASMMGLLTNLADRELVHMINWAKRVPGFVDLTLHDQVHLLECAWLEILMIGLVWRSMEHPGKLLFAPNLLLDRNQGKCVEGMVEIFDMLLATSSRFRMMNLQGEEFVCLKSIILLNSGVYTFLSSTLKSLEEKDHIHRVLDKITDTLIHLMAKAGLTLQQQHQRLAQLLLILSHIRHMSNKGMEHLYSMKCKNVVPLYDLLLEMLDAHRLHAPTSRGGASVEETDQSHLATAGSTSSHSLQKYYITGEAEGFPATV
Description: Degradation of ERα by Ab-CIDEs (Example 3, FIGS. 1-3, Tables 2-4). In kind it is cell-based. To be noted: ERα degradation by Ab-CIDE.

Assay [2] relates to EOL-1 AML xenografts. Description: EOL-1 AML subcutaneous xenograft efficacy. In kind it is in vivo, mice. The following applies: single IV dose 0.4 mg/kg. The procedure: Two human AML cell lines, EOL-1 (DSMZ; Braunschweig, Germany) and HL-60 (ATCC, Manassas, VA) were used to establish subcutaneous xenograft models for efficacy evaluation of the degrader-antibody conjugates. Tumor cells (5 million cells suspended in 0.1 mL of Hanks' Balanced Salt Solution supplemented with Matrigel) were inoculated to the flanks of female CB-17 Fox Chase SCID mice (Charles River Lab, Hollister, CA). When mean tumor size reached the desired volume (200-300 mm^3), animals were randomized into groups of n=5, each with similar tumor volume distributions, and each animal received an intraperitoneal dose of a mouse IgG2a anti-ragweed antibody in excess amount (30 mg/kg; to block Fcγ receptors frequently expressed on the surface of AML cells). Four hours later, vehicle or degrader-antibody conjugates were administered to the animals via single intravenous (IV) bolus injections through the tail vein. Tumors were measured in two dimensions (length and width) using calipers and the tumor volume was calculated using the formula: Tumor size (mm^3)=0.5×(length×width×width). The results were plotted as mean tumor volume+/−SEM of each group over time. Treatment groups were not blinded during tumor measurement.

The text below walks through data of patent publication US12440706B2, “Conjugated chemical inducers of degradation and methods of use” (Genentech, Inc., priority 2018, dated 2025).

Take `CC/C(=C(/c1ccc(OCCN(C)C(=O)CCOCCOCCC(=O)N[C@H](C(=O)N2C[C@H](OC(=O)OCC(C)(C)SS(C)(=O)=O)C[C@H]2C(=O)NCc2ccc(-c3scnc3C)cc2)C(C)(C)C)cc1)c1ccc(OP(=O)(O)O)cc1)c1ccccc1` [Thio Hu Anti- CD22 10F4v3 high DAR [LC:K149C HC:L174C HC:Y37]: in assay [1], the DC50 is 1270 nM and the Sinf was −92%.

For the molecule `CC/C(=C(\c1ccc(O)cc1)c1ccc(OCCN(C)C(=O)CCOCCOCCC(=O)N[C@H](C(=O)N2C[C@H](OC(=O)OCC(C)(C)SS(C)(=O)=O)C[C@H]2C(=O)NCc2ccc(-c3scnc3C)cc2)C(C)(C)C)cc1)c1ccccc1` [Thio Hu Anti- CD22 10F4v3 high DAR [LC:K149C HC:L174C Y373C]], in assay [1], the DC50 was 304 nM and the Sinf is on record as −92%.

For the molecule `CC/C(=C(/c1ccc(OCCN(C)C(=O)CCOCCOCCC(=O)N[C@H](C(=O)N2C[C@H](OC(=O)OCC(C)(C)SS(C)(=O)=O)C[C@H]2C(=O)NCc2ccc(-c3scnc3C)cc2)C(C)(C)C)cc1)c1ccc(OP(=O)(O)O)cc1)c1ccccc1` [Thio Hu Anti- Her2 7C2 high DAR [LC:K149C HC:L174C HC:Y373C]], in assay [1], the DC50 was 47.4 nM and the Sinf was −94%. The corresponding values for `CC/C(=C(\c1ccc(O)cc1)c1ccc(OCCN(C)C(=O)CCOCCOCCC(=O)N[C@H](C(=O)N2C[C@H](OC(=O)OCC(C)(C)SS(C)(=O)=O)C[C@H]2C(=O)NCc2ccc(-c3scnc3C)cc2)C(C)(C)C)cc1)c1ccccc1` [Thio Hu Anti- Her2 7C2 high DAR [LC:K149C HC:L174C HC:Y373C]] are 27.9 nM and −93%. For the molecule `Cc1ncsc1-c1ccc(CNC(=O)[C@@H]2C[C@@H](O)CN2C(=O)[C@@H](NC(=O)CCCCCCCCCCNC(=O)c2cc3c(cc2CS(C)(=O)=O)-c2cn(C)c(=O)c4[nH]cc(c24)CN3c2ncc(F)cc2F)C(C)(C)C)cc1` [unconjugated CIDE], the “efficacy in the EOL-1 model” value in assay [2] is recorded as “no efficacy”.

For orientation: DC50 means the concentration at which degradation of the target reaches its halfway point.
